US11078194B2, “Salt form and crystal form serving as FGFR and VEGFR inhibitor compounds, and preparation method therefor” (HARBIN ZHENBAO PHARMACEUTICAL CO., LTD., priority 2017, dated 2021)
Like-named read-outs stand apart in the source and are kept apart here. One block for each compound: values may come before it.

Legend:
[1] = Solubility test of compounds of formula (I)-(IV) in 4 vehicles (water, SGF, FaSSIF, FeSSIF), HPLC; type: physicochemical; settings: for solubility at 4 h / solubility at 24 h: thermodynamic from solid; for solubility at 4 h / Solubility (μg/mL)_4 hours: 4 hours stirring; for solubility at 4 h: read-out: Solubility (μg/mL)_4 hours; for solubility at 24 h / Solubility (μg/mL)_24 hours: 24 hours stirring; for solubility at 24 h: read-out: Solubility (μg/mL)_24 hours
Method: About 5 mg of the compound of formula (I) was weighed accurately, and placed in a sample bottle. 10 mL of acetonitrile was added. The mixture was sonicated for 5 minutes, cooled to room temperature, and well mixed. Two control sample solutions were prepared in parallel, and labeled as STD-1 and STD-2, respectively.
The control sample solution STD-1 was serially diluted 1, 5, 10, 100 and 1000 times and labeled as linear solutions L1, L2, L3, L4 and L5.
The solubility of the compound of formula (I) and its salt in 4 vehicles with different pH were tested. About 10 mg of the compounds of formula (I)-(IV) were weighed respectively, then 5.0 mL of different vehicles (water, SGF, FaSSIF, FeSSIF) were added thereto, respectively, and well mixed to obtain suspensions. Magnetic stir bars were added into the suspensions, and the suspensions were placed on a magnetic stirrer for stirring. After stirring for 2 hours, 4 hours, and 24 hours, the samples were collected and centrifuged. The residual solid samples in the lower layer were detected by XRPD. The concentrations of the samples in the upper layer were determined by HPLC, and the pH value of the samples were also detected.
(§1) FaSSIF: (1) 0.042 g of sodium hydroxide, 0.3438 g of sodium dihydrogen phosphate and 0.6186 g of sodium chloride were weighed, and 90 mL of purified water was added and well mixed. The pH value of the obtained solution were adjusted to 6.5 with 1 N hydrochloric acid or 1 N sodium hydroxide, and the solution were diluted with purified water to a final volume of 100 mL. (2) 50 mL of the above buffer solution was taken, followed by addition of 0.224 g of commercially available FaSSIF/FeSSIF/FaSSGF powder (Biorelevant.com). The buffer solution was stirred until dissolved, and diluted with purified water to a final volume of 100 mL. The buffer solution was placed at room temperature.
as §1, with “FeSSIF:” for “FaSSIF:”, “0.404” for “0.042”, “0.865” for “0.3438”, “glacial acetic acid, 1.1874” for “sodium dihydrogen phosphate and 0.6186”, “5.0” for “6.5”, “1.12” for “0.224”
FaSSGF (SGF): (1) 0.2 g of sodium chloride was added to 90 mL of purified water and mixed well. The pH value thereof was adjusted to 1.8 with 1 N hydrochloric acid and the solution diluted with purified water to a final volume of 100 mL. The obtained solution was allowed to stand at room temperature.

[2] = Solid stability test of crystal form G, crystal form I and crystal form J (HPLC content, total impurities, XRPD, appearance); type: physicochemical
Method: About 10 mg of crystal form G, crystal form I, or crystal form J were weighed accurately, and placed on the bottom of a 40 mL glass sample bottle and spread into a thin layer. For an open sample, the bottle mouth thereof was sealed with aluminum foil poked with pinholes to ensure that the sample can fully contact with the ambient air. For a sealed sample, the bottle mouth thereof was sealed with a bottle cap, and wrapped with a sealing film. Two duplicate samples were weighed at each time point of each condition in parallel, and an appropriate amount of sample (not weighed) was taken additionally for XRPD detection. The prepared samples were placed under each condition and were sampled and analyzed when the time point was arrived. On 0th day, 5 control samples were weighed in parallel and stored in a refrigerator at −20° C. until analysis. The samples subjected to light irradiation were prepared by the same method, and placed on the bottom of a 40 mL glass sample bottle. The glass bottle was left open and placed in the upright position in a light irradiation box. In addition, two samples in an appropriate amount were taken as samples in dark, and the glass bottles containing the same were left open, put in the upright position, and wrapped with tin foil, and irradiated with a total luminance of 1.2×10^6Lux.hr and a near ultraviolet power of 200 w.hr/m^2. After irradiation, the samples was stored in the refrigerator at −20° C. for analysis.
The compounds were placed under the following conditions and sampled at different time points to detect the physical properties, and the content and total impurities were analyzed by HPLC.

[3] = FaSSIF, pH 6.5, fassif, vehicle FaSSIF
[4] = FeSSIF, pH 5, fessif, vehicle FeSSIF
[5] = pH of sample in FaSSIF (vehicle pH 6.62)
[6] = pH of sample in FeSSIF (vehicle pH 4.59)
[7] = pH of sample in H2O (vehicle pH 8.23)
[8] = pH of sample in SGF (vehicle pH 1.57)
[9] = water, pH 8.23, water, vehicle H2O
[10] = SGF (FaSSGF), pH 1.8, simulated gastric fluid, vehicle SGF
[11] = Accelerated test (40° C./relative humidity 75%, open), 1st month
[12] = Accelerated test (40° C./relative humidity 75%, open), 2nd month
[13] = Accelerated test (40° C./relative humidity 75%, open), 3rd month
[14] = Accelerated test (40° C./relative humidity 75%, open), 10th day
[15] = Accelerated test (60° C./relative humidity 75%, open), 1st month
[16] = Accelerated test (60° C./relative humidity 75%, open), 2nd month
[17] = Accelerated test (60° C./relative humidity 75%, open), 3rd month
[18] = Accelerated test (60° C./relative humidity 75%, open), 10th day
[19] = High humidity (Room temperature/relative humidity 92.5%, open), 5th day
[20] = High humidity (Room temperature/relative humidity 92.5%, open), 10th day
[21] = High temperature (60° C., open), 5th day
[22] = High temperature (60° C., open), 10th day
[23] = Light irradiation (1.2 × 10^6 Lux·hr, near ultraviolet 200 w·hr/m^2, open), irradiated sample
[24] = Light irradiation test, Dark sample

Structure (SMILES): C[C@@H](Oc1ccc2[nH]nc(/C=C(\F)c3ccc(CNC4CCOCC4)nc3)c2c1)c1c(Cl)cncc1Cl [compound of formula (I)]
solubility at 4 h [1, 3]: 781 µg/mL
solubility at 4 h [1, 4]: 1950 µg/mL
solubility at 24 h [1, 4]: 1730 µg/mL
solubility in the three biological vehicle ([1]; SGF, FaSSIF, FeSSIF, conclusion in words): good solubility
pH (4 hours) [1, 5]: 6.58
pH (24 hours) [1, 5]: 6.57
pH (4 hours) [1, 6]: 5.01
pH (24 hours) [1, 6]: 5.01
pH (4 hours) [1, 7]: 8.33
pH (24 hours) [1, 7]: 7.97
pH (4 hours) [1, 8]: 2.10
pH (24 hours) [1, 8]: 2.06
Solubility (μg/mL)_24 hours ([1]; vehicle FaSSIF): 611.3 µg/mL
Solubility (μg/mL)_4 hours ([1]; vehicle H2O): 5.8 µg/mL
Solubility (μg/mL)_24 hours ([1]; vehicle H2O): <LOQ
Solubility (μg/mL)_4 hours ([1]; vehicle SGF): 1971.3 µg/mL
Solubility (μg/mL)_24 hours ([1]; vehicle SGF): 1825.6 µg/mL
solubility in the aqueous phase / water ([1]; water, conclusion in words, listed as free base): extremely difficult to dissolve

Structure (SMILES): C[C@@H](Oc1ccc2[nH]nc(/C=C(\F)c3ccc(CNC4CCOCC4)nc3)c2c1)c1c(Cl)cncc1Cl [compound of formula (II)]
pH (4 hours) [1, 5]: 6.25
pH (24 hours) [1, 5]: 6.22
pH (4 hours) [1, 6]: 4.90
pH (24 hours) [1, 6]: 4.91
pH (4 hours) [1, 7]: 2.68
pH (24 hours) [1, 7]: 2.68
pH (4 hours) [1, 8]: 1.86
pH (24 hours) [1, 8]: 1.86
Solubility (μg/mL)_4 hours ([1]; vehicle FaSSIF): 949.7 µg/mL
Solubility (μg/mL)_24 hours ([1]; vehicle FaSSIF): 281.6 µg/mL
Solubility (μg/mL)_4 hours ([1]; vehicle FeSSIF): 2010.0 µg/mL
Solubility (μg/mL)_24 hours ([1]; vehicle FeSSIF): 1831.5 µg/mL
Solubility (μg/mL)_4 hours ([1]; vehicle H2O): 1576.9 µg/mL
Solubility (μg/mL)_4 hours ([1]; vehicle SGF): 106.3 µg/mL
Solubility (μg/mL)_24 hours ([1]; vehicle SGF): 45.4 µg/mL
solubility at 24 h [1, 9]: 1540 µg/mL
solubility in the aqueous phase / water ([1]; water, conclusion in words, listed as hydrochloride): highest solubility

Structure (SMILES): C[C@@H](Oc1ccc2[nH]nc(/C=C(\F)c3ccc(CNC4CCOCC4)nc3)c2c1)c1c(Cl)cncc1Cl.O=C(O)CC(O)(CC(=O)O)C(=O)O [compound of formula (III)]
solubility at 4 h [1, 3]: 910 µg/mL
solubility at 24 h [1, 3]: 942 µg/mL
solubility at 4 h [1, 4]: 2370 µg/mL
solubility at 24 h [1, 4]: 2230 µg/mL
solubility at 4 h [1, 10]: 2420 µg/mL
solubility at 24 h [1, 10]: 16.8 µg/mL
pH (4 hours) [1, 5]: 6.43
pH (24 hours) [1, 5]: 6.33
pH (4 hours) [1, 6]: 4.96
pH (24 hours) [1, 6]: 4.97
pH (4 hours) [1, 7]: 5.60
pH (24 hours) [1, 7]: 5.47
pH (4 hours) [1, 8]: 2.09
pH (24 hours) [1, 8]: 2.08
solubility at 4 h [1, 9]: 99.5 µg/mL
solubility at 24 h [1, 9]: 184 µg/mL

Second part, the compound after the results:

solubility at 4 h [1, 3]: 1130 µg/mL
solubility at 24 h [1, 3]: 824 µg/mL
solubility at 4 h [1, 4]: 2410 µg/mL
solubility at 24 h [1, 4]: 2280 µg/mL
solubility at 4 h [1, 10]: 2470 µg/mL
solubility at 24 h [1, 10]: 43.3 µg/mL
pH (4 hours) [1, 5]: 6.26
pH (24 hours) [1, 5]: 6.27
pH (4 hours) [1, 6]: 4.95
pH (24 hours) [1, 6]: 4.95
pH (4 hours) [1, 7]: 6.93
pH (24 hours) [1, 7]: 6.46
pH (4 hours) [1, 8]: 2.09
pH (24 hours) [1, 8]: 2.09
solubility at 4 h [1, 9]: 7.4 µg/mL
solubility at 24 h [1, 9]: 19.3 µg/mL
Structure (SMILES): C[C@@H](Oc1ccc2[nH]nc(/C=C(\F)c3ccc(CNC4CCOCC4)nc3)c2c1)c1c(Cl)cncc1Cl.O=C(O)C[C@H](O)C(=O)O [compound of formula (IV)]

Appearance ([2]; 0th day): Earth yellow
Content (%) ([2]; 0th day): 100%
Crystal form (XRPD) ([2]; 0th day): form G
Total impurities (%) ([2]; 0th day): 0.11%
Appearance [2, 11]: Earth yellow
Content (%) [2, 11]: 102.45%
Crystal form (XRPD) [2, 11]: form G
Total impurities (%) [2, 11]: 0.16%
Appearance [2, 12]: Earth yellow
Content (%) [2, 12]: 101.07%
Crystal form (XRPD) [2, 12]: form G
Total impurities (%) [2, 12]: 0.17%
Appearance [2, 13]: Earth yellow
Content (%) [2, 13]: 98.81%
Crystal form (XRPD) [2, 13]: form G
Total impurities (%) [2, 13]: 0.18%
Appearance [2, 14]: Earth yellow
Content (%) [2, 14]: 99.97%
Crystal form (XRPD) [2, 14]: form G
Total impurities (%) [2, 14]: 0.11%
Appearance [2, 15]: Earth yellow
Content (%) [2, 15]: 101.51%
Crystal form (XRPD) [2, 15]: form G
Total impurities (%) [2, 15]: 0.17%
Appearance [2, 16]: Earth yellow
Content (%) [2, 16]: 99.86%
Crystal form (XRPD) [2, 16]: form G
Total impurities (%) [2, 16]: 0.18%
Appearance [2, 17]: Earth yellow
Content (%) [2, 17]: 100.21%
Crystal form (XRPD) [2, 17]: form G
Total impurities (%) [2, 17]: 0.19%
Appearance [2, 18]: Earth yellow
Content (%) [2, 18]: 98.38%
Crystal form (XRPD) [2, 18]: form G
Total impurities (%) [2, 18]: 0.15%
Appearance [2, 19]: Earth yellow
Content (%) [2, 19]: 100.82%
Crystal form (XRPD) [2, 19]: form G
Total impurities (%) [2, 19]: 0.11%
Appearance [2, 20]: Earth yellow
Content (%) [2, 20]: 98.79%
Crystal form (XRPD) [2, 20]: form G
Total impurities (%) [2, 20]: 0.11%
Appearance [2, 21]: Earth yellow
Content (%) [2, 21]: 102.02%
Crystal form (XRPD) [2, 21]: form G
Total impurities (%) [2, 21]: 0.16%
Appearance [2, 22]: Earth yellow
Content (%) [2, 22]: 100.14%
Crystal form (XRPD) [2, 22]: form G
Total impurities (%) [2, 22]: 0.16%
Appearance [2, 23]: Earth yellow
Content (%) [2, 23]: 102.93%
Crystal form (XRPD) [2, 23]: form G
Total impurities (%) [2, 23]: 0.37%
Appearance [2, 24]: Earth yellow
Content (%) [2, 24]: 101.69%
Crystal form (XRPD) [2, 24]: form G
Total impurities (%) [2, 24]: 0.11%
thermal stability and stability under accelerated conditions ([2]; conclusion of influencing factors and accelerated tests): excellent
stability under dark conditions ([2]; dark): good stability
impurities generated under light irradiation conditions ([2]; light irradiation): slight impurities
Structure (SMILES): C[C@@H](Oc1ccc2[nH]nc(/C=C(\F)c3ccc(CNC4CCOCC4)nc3)c2c1)c1c(Cl)cncc1Cl [crystal form G]
